Test results as given in patent publication US20230087609A1, “USE OF A SOLUBLE GUANYLATE CYCLASE (sGC) STIMULATOR OR OF A COMBINATION OF A sGC STIMULATOR AND AN sGC ACTIVATOR FOR CONDITIONS WHEREIN THE HEME GROUP OF sGC IS OXIDIZED OR WHEREIN sGC IS DEFICIENT IN HEME” (Universiteit Maastricht, priority 2020, published 2023).

Legend:
[1] = target: T1, apo-sGC (sGCβ1 H105F knock-in) (Mus musculus, UniProt O54865, H105F); assay: sGC activity in lung homogenates of apo-sGC mice; assay type: biochemical
T1 construct: from tissue; host or cells: lung homogenate of homozygous sGCβ1 H105F knock-in mice
T1 sequence (O54865 1-620 H105F): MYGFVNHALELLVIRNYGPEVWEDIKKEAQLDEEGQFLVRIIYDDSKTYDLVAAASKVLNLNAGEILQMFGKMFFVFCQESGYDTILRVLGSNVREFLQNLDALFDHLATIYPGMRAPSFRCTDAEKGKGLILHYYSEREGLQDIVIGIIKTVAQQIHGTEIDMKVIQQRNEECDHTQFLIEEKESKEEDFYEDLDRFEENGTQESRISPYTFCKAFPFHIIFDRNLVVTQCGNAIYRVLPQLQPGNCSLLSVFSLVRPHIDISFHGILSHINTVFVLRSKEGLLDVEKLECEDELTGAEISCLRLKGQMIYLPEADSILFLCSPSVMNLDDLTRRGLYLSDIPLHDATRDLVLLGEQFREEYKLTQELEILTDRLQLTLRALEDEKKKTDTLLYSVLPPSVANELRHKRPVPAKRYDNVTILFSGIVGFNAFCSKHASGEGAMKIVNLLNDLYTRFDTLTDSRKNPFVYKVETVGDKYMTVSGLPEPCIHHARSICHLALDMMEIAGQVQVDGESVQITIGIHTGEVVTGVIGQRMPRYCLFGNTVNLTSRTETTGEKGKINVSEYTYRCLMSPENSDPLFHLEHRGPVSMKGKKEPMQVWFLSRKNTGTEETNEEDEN
T1 sequence (Q9ERL9 1-691 partner): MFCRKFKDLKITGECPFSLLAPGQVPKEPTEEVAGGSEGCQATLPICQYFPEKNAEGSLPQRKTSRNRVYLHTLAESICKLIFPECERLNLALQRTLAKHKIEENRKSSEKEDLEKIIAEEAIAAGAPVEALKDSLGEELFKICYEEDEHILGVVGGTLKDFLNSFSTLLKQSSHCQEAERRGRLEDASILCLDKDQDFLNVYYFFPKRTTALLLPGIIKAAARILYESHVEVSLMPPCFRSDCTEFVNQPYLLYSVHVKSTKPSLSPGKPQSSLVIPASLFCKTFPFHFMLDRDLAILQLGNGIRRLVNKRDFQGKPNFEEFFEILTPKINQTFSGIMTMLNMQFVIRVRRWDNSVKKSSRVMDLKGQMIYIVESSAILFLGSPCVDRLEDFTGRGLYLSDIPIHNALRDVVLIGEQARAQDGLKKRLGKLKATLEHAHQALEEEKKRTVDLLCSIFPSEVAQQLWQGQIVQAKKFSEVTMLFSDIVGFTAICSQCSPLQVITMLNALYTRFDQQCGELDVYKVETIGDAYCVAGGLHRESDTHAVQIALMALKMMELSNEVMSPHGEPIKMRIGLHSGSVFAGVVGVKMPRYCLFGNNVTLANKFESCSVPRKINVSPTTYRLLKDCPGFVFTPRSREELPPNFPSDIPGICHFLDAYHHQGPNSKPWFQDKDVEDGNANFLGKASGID
Method: Adult male Sprague Dawley (SD) rats (age, 10-12 weeks) were obtained from Animal Resources Centre (Western Australia). Animals were housed on a 12 hour day/night cycle at a room temperature of 20±2° C., in the Department of Pharmacology Animal House, Monash University. The animals were fed standard rodent chow and water was available ad libitum. Homozygous male sGC(1^H105F knock-in mice (“apo-sGC mice”) were kindly provided by Tufts Medical Center, Molecular Cardiology Research Center, Boston, Mass., USA (Toonen et al., Nat Commun. 2015; 6:8482. doi: 10.1038/ncomms9482).
To measure sGC activity, cells were stimulated with 250 μM DEA/NO or 10 μM BAY58-2667 for 3 min at 37° C. Thereafter, cells were immediately lysed in 80% ethanol. Cells were scraped and, after evaporation of ethanol, re-suspended in assay buffer and sonicated. Measurement of sGC activity in crude homogenates of mouse tissue was performed as previously described (Nedvetsky et al., Brain Res. 2002; 950(1-2):148-154. doi: 10.1016/50006-8993(02)03015-9).[9] Briefly, all samples were measured as the formation of cGMP at 37° C. during 10 min in a total incubation volume of […] containing 50 mM triethanolamine-HCl (pH 7.4), 3 mM MgCl2, 3 mM glutathione (Carl Roth, Karlsruhe, Germany), 1 mM IBMX, […], 5 mM creatine phosphate, 0.25 mg/ml creatine kinase and 1 mM or 0.5 mM GTP. After adding sGC activator in the absence or presence of the sGC stimulator the reaction was started by application of GTP solution. Following incubation of each sample for 10 min the reaction was stopped by boiling for 10 min at 95° C. Thereafter the amount of cGMP was subsequently determined by a commercial enzyme immunoassay kit (Enzo Life Sciences, Lorrach, Germany or Biotrend, Cologne, Germany). In some experiments pre-incubation of freshly homogenized tissue with ODQ at 37° C. for 20 min prior measuring sGC activation was required.

[2] = system: Human Brain Microvascular Endothelial Cells (HBMECs); assay: Cell viability (MTT) of HBMEC subjected to hypoxia; assay type: cell-based; conditions: 1 μM; 6 h hypoxia, 24 h reperfusion; versus non-treated cells (FIG. 9)
Method: HBMEC (Cell systems, USA) between passage 3 and 9 were cultured to approximately 95% confluence using specialized cell medium (EGM-2 MV BulletKit, Lonza, The Netherlands) enriched with 5% fetal bovine serum before starting the hypoxia period. For hypoxia studies, HBMECs were seeded at specific density (6×10^4 cells/ml) in 12 wells-plate and incubated during 24 h at 37° C. Then, cell medium was replaced with non-FBS containing medium following by 6 h of hypoxia (94.8% N2, 0.2% O2 and 5% CO2) at 37° C. using hypoxia workstations (Ruskin Invivo2 400 station, The Netherlands). The hypoxia period was followed by 24 h of reperfusion in the presence or absence of 1 μM BAY 41-2272. Control cells were exposed to normoxia (75% N2, 20% O2 and 5% CO2) and enriched medium during the hypoxia period.
After 24 h of re-oxygenation period, cell viability was assessed using the colorimetric MTT assay. MTT solution (5 mg/ml) was added to each well (100 μl/ml) and incubated for 2 h at 37° C. The formazan salt formed was solubilized by adding 350 μl/well DMSO. The optical density was measured spectrophotometrically at 540 nm using a micro plate reader. Absorbance values obtained in control cells were set to 100% viability.

cGMP formation on stimulation with the sGC stimulator ([1]; 10 μM BAY 41-2272, in presence and in absence of 10 μM ODQ (FIG. 11)): cGMP is synthesized | sGC activity, response to compound alone ([1]; lung homogenates of apo-sGC mice, compound alone): can also be activated
SMILES: Nc1nc(-c2nn(Cc3ccccc3F)c3ncccc23)ncc1C1CC1 [BAY 41-2272, 5-cyclopropyl-2-[1-(2-fluoro-benzyl)-1H-pyrazolo[3,4-b]pyridin-3-yl]-pyrimidin-4-ylamine]
cell viability [2]: significantly increased cell viability
